Source: patent US9695219B2, “Polypeptide having antibacterial activity and angiogenesis-inducing activity and wound-healing drug containing said polypeptide” (priority 2009, dated 2017)
In brackets after ≈: the same amount, converted by molar mass. Where two headings read alike, the source gives them in different places. Where no end group is shown, it is not given here.

How the values were obtained:
[1] = tested on: Enterobacter aerogenes JCM 1235; assay: Antibacterial activity, ATP assay (BacTiter-Glo); type: cell-based
Protocol: (§1) The antibacterial activity of each of SR-08 and SR-07 polypeptides was measured using an ATP assay method. That is, using BacTiter-Glo Microbial Cell Viability Assay kit available from PROMEGA, the antibacterial activity of the peptides was evaluated from the viability of bacteria. In other words, ATP amount in viable bacteria in cases where the concentration of the peptides was 10 μg/mL was measured using a microtiter plate or test tubes. As controls, tobramycin (TOB), oxacillin (OX) and meropenem (MEPM) were used at the concentrations as respectively shown in Table 6 below.
(§2) With respect to the strains, Escherichia coli: ATCC 25922 (Escherichia coli ATCC 25922), Pseudomonas aeruginosa: ATCC 27853 (Pseudomonas aeruginosa ATCC 27853), Staphylococcus aureus: ATCC29213 (Staphylococcus aureus ATCC29213), Klebsiella pneumoniae: JCM 1662 (Klebsiella pneumoniae JCM 1662), enterobacteria (1): JCM 1232 (Enterobacter cloacae JCM 1232), and enterobacteria (2): JCM 1235 (Enterobacter aerogenes JCM 1235), were used.
(§3) The bacteria were cultured in media for 3 to 4 hours, and thereafter absorbances at A600 were measured. Bacterial suspensions were diluted with Mueller-Hinton broth (MHB) according to McFarland #0.5. Each strain was added so as to attain about 0.5-1×10^5 CFU/mL (final concentration) in terms of Escherichia coli. Each peptide was prepared and added to a microplate or test tubes so as to attain a final concentration of 10 μg/mL, and the bacterial suspension was added thereto. The plate was incubated at 37° C. for 3 hours, and the amount of ATP in the culture media was measured. Relative values were calculated by comparison with the negative control, and these values were regarded as the viability.

[2] = tested on: Pseudomonas aeruginosa (clinical strain 9); assay: MIC measurement, broth microdilution; type: cell-based; conditions: Pseudomonas aeruginosa; 37° C. for 20 hours; tested twice, first/second value where not matched
[3] = tested on: Pseudomonas aeruginosa (clinical strain 8); assay: MIC measurement, broth microdilution; type: cell-based; conditions: Pseudomonas aeruginosa; 37° C. for 20 hours; tested twice, first/second value where not matched
[4] = tested on: Pseudomonas aeruginosa (clinical strain 6); assay: MIC measurement, broth microdilution; type: cell-based; conditions: Pseudomonas aeruginosa; 37° C. for 20 hours; tested twice, first/second value where not matched
MRSA (clinical strain 2) = assay: microbe, parasite or virus in culture; type: cell-based, Staphylococcus aureus; conditions: 37° C. for 20 hours, tested twice, first/second value where not matched
Protocol: (§4) Further, with respect to not only the above-described strains but also various other strains, the “minimum inhibitory concentration (MIC)” was measured as follows. MIC is the lowest concentration of an agent that may inhibit the growth of a bacterium. MIC is used as a parameter for the efficacy of an antibacterial agent, for the strength of bacterial sensitivity, or the like. The bacteria can grow (proliferate) when the concentration is not higher than MIC, and cannot grow when the concentration is higher than MIC. Its measurement is carried out according to a method defined as a standard method by Japanese Society of Chemotherapy or CLINICAL AND LABORATORY […] (CLSI), but, in this Example, its measurement was carried out by a broth microdilution method in accordance with “M100-S17/M7-A7” (Performance Standards for Antimicrobial Susceptibility Testing; Seventeenth Informational Supplement, Vol. 27 No. 1) published by CLSI on January, 2007. That is, sensitivity test of agents was carried out using a microtiter plate or test tubes.
(§5) The bacteria were cultured in liquid media for 4 to 6 hours, and thereafter absorbances at A600 were measured. Bacterial suspensions were diluted with Mueller-Hinton broth (MHB) according to McFarland #0.5. Each strain was added so as to attain about 10^5 CFU/ml (final concentration). Each peptide was prepared to an optional concentration, and the solutions were serially diluted from the concentration. The polypeptide at each concentration stage was added to a microplate or test tubes, and the bacterial suspension was added thereto. Chloramphenicol, amphotericin B, ciprofloxacin, meropenem (MEPM), ciprofloxacin (CPFX), tobramycin (TOB) and oxacillin (OX) were used as positive controls. The plate was incubated at 37° C. for 20 hours, and the lowest concentration where bacterial growth was inhibited was regarded as the minimum inhibitory concentration.

MSSA (clinical strain 1) = assay: microbe, parasite or virus in culture; type: cell-based, Staphylococcus aureus; conditions: Staphylococcus aureus, MSSA; 37° C. for 20 hours; tested twice, first/second value where not matched
Protocol: as §4, §5

MSSA (clinical strain 2) = assay: microbe, parasite or virus in culture; type: cell-based, Staphylococcus aureus; conditions: 37° C. for 20 hours, tested twice, first/second value where not matched
Protocol: as §4, §5

MRSA (clinical strain 1) = assay: microbe, parasite or virus in culture; type: cell-based; conditions: Staphylococcus aureus, 37° C. for 20 hours, tested twice, first/second value where not matched
Protocol: as §4, §5

[5] = tested on: Pseudomonas aeruginosa (clinical strain 12); assay: MIC measurement, broth microdilution; type: cell-based; conditions: Pseudomonas aeruginosa; 37° C. for 20 hours; tested twice, first/second value where not matched
[6] = tested on: Pseudomonas aeruginosa (clinical strain 1); assay: microbe, parasite or virus in culture; type: cell-based; conditions: Pseudomonas aeruginosa; 37° C. for 20 hours; tested twice, first/second value where not matched
[7] = tested on: Staphylococcus epidermidis; assay: MIC measurement, broth microdilution; type: cell-based; conditions: Staphylococcus epidermidis; 37° C. for 20 hours; tested twice, first/second value where not matched
Protocol: as §4, §5

[8] = tested on: Staphylococcus aureus ATCC29213; assay: Antibacterial activity, ATP assay (BacTiter-Glo); type: cell-based
Protocol: (§6) The antibacterial activity of the polypeptides was measured using an ATP assay method. Using BacTiter-Glo Microbial Cell Viability Assay kit available from PROMEGA, the antibacterial activity of the peptides was evaluated from the viability of bacteria. […] With respect to the strains, Staphylococcus aureus ATCC29213 (S. aureus ATCC29213) as Gram-positive bacteria, or, alternatively, Pseudomonas aeruginosa (P. aeruginosa ATCC27853) as Gram-negative bacteria, was used. The bacteria were cultured in media for 3 to 4 hours, and thereafter absorbances at A600 were measured. Bacterial suspensions were diluted with Mueller-Hinton broth (MHB) according to McFarland #0.5. […] A solution to which the peptides were not added was considered as a negative control, and a solution to which tobramycin (TOB) was added was considered as a positive control. The plate was incubated at 37° C. for 3 hours, and the amount of ATP in the culture media was measured. Relative values were calculated by comparison with the negative control, and these values were regarded as the viability. The antibacterial activity of each of SR-08 and SR-07 polypeptides was measured using an ATP assay method. That is, using BacTiter-Glo Microbial Cell Viability Assay kit available from PROMEGA, the antibacterial activity of the peptides was evaluated from the viability of bacteria. […] As controls, tobramycin (TOB), oxacillin (OX) and meropenem (MEPM) were used at the concentrations as respectively shown in Table 6 below. With respect to the strains, Escherichia coli: ATCC 25922 (Escherichia coli ATCC 25922), Pseudomonas aeruginosa: ATCC 27853 (Pseudomonas aeruginosa ATCC 27853), Staphylococcus aureus: ATCC29213 (Staphylococcus aureus ATCC29213), Klebsiella pneumoniae: JCM 1662 (Klebsiella pneumoniae JCM 1662), enterobacteria (1): […] JCM 1235 (Enterobacter aerogenes JCM 1235), were used. The bacteria were cultured in media for 3 to 4 hours, and thereafter absorbances at A600 were measured. Bacterial suspensions were diluted with Mueller-Hinton broth (MHB) according to McFarland #0.5. […] The plate was incubated at 37° C. for 3 hours, and the amount of ATP in the culture media was measured. Relative values were calculated by comparison with the negative control, and these values were regarded as the viability.

[9] = tested on: Pseudomonas aeruginosa ATCC 27853; assay: Antibacterial activity, ATP assay (BacTiter-Glo); type: cell-based
Protocol: as §6

[10] = tested on: Escherichia coli ATCC 25922; assay: Antibacterial activity, ATP assay (BacTiter-Glo); type: cell-based
Protocol: as §1, §2, §3

[11] = tested on: Klebsiella pneumoniae JCM 1662; assay: Antibacterial activity, ATP assay (BacTiter-Glo); type: cell-based
Protocol: as §1, §2, §3

[12] = tested on: Enterobacter cloacae JCM 1232; assay: Antibacterial activity, ATP assay (BacTiter-Glo); type: cell-based
Protocol: as §1, §2, §3

[13] = tested on: human vascular endothelial cells and fibroblast cells; type: cell-based; conditions: polypeptide 10 μg/mL, Day 11 of culture
Protocol: Using AG30-5C as a positive control, the angiogenesis-inducing activity of SR-1 and SR-2 was measured. More concretely, using an angiogenesis kit (Angiogenesis Kit, KZ-1000, KURABO […] LTD.), the ability of the polypeptides to form lumina was evaluated. As a negative control, polypeptide-free group (Control) was used.
Each polypeptide was added to a special medium for angiogenesis (KURABO […] LTD., KZ-1500) such that the concentration thereof was 10 μg/mL. Cells were cultured at 37° C. under 5% CO2 in a 24-well plate using the special media to which the polypeptide was added. The medium was replaced with a medium containing the same polypeptide on Day 4, Day 7 and Day 9 of culture. On Day 11 from the beginning of the culture, the medium was removed and staining was performed using a kit for staining lumina (for CD31 antibody staining) according to the following procedure.
The primary antibody (mouse anti-human CD31 antibody) was 4000-fold diluted with a blocking solution (Dulbecco's phosphate buffered saline (PBS(−)) containing 1% BSA). To each well, 0.5 mL of this primary antibody solution was added, and the plate was incubated for 60 minutes at 37° C. After the completion of the incubation, each well was washed totally 3 times with 1 mL of the blocking solution.
Then, 0.5 mL of a secondary antibody solution (goat anti-mouse IgG/alkaline phosphatase conjugate) 500-fold diluted with the blocking solution was added to each well. The plate was incubated for 60 minutes at 37° C., and thereafter each well was washed 3 times with 1 mL of distilled water. During that period, 2 tablets of BCIP/NBT were dissolved into distilled water, and the obtained solution was filtered through a filter having a pore size of 0.2 μm to prepare a substrate solution. To each well, 0.5 mL of the prepared BCIP/NBT substrate solution was added, and the plate was incubated at 37° C. until the lumina turned to deep purple (typically for 5-10 minutes). After the completion of the incubation, each well was washed 3 times with 1 mL of distilled water. After washing, the washing solution was removed by aspiration, and the plate was left to stand and dry naturally. After drying, photographs of each well were taken under a microscope.
Each of the obtained images was quantified using an angiogenesis quantification software. Computer analysis was carried out on various parameters. And, on the basis of its scale, the lengths of formed lumina observed in each visual field were measured, and the effect of adding the polypeptides compared with Control was evaluated.

[14] = Table 7, mean values, peptides 10 μg/mL, TOB 4.0, OX 4.0, MEPM 0.5 μg/mL, 37° C. 3 hours, relative to negative control
[15] = Table 5, peptides 10 μg/mL, 37° C. for 3 hours, ATP amount relative to negative control
[16] = Table 7, mean values, peptides 10 μg/mL, TOB 1.0, OX 1.0, MEPM 0.5 μg/mL, 37° C. 3 hours, relative to negative control

Compound | MIC [2] | MIC [3] | MIC [4] | MIC (MSSA (clinical strain 1)) | MIC (MRSA (clinical strain 1)) | MIC [5] | MIC [6] | MIC [7] | The Length of Lumina (Percentage when taking Control as 100) ([13]; Table 4) | The Length of Lumina (Percentage when taking Control as 100) ([13]; Table 3) | further results
C[C@@H](O)[C@H]1C(=O)N2C(C(=O)O)=C(S[C@@H]3CN[C@H](C(=O)N(C)C)C3)[C@H](C)[C@H]12 [MEPM, meropenem] | < 4 µg/mL | < 4 µg/mL | 8 µg/mL (≈ 20.9 µM) | < 4 µg/mL | < 4 µg/mL | < 4 µg/mL | < 4 µg/mL | 0.03 to 0.12 µg/mL (≈ 0.0782 to 0.313 µM) | – | – | viability at 0.5 µg/mL ([1]; Klebsiella aerogenes, JCM1235, 3 h, read-out: Viability, Enterobacteria (2)): 1.7%; MIC, MRSA (clinical strain 2) (MRSA (clinical strain 2)): 8/16; MIC, MSSA (clinical strain 2) (MSSA (clinical strain 2)): 4/8; viability at 0.5 µg/mL ([8]; Staphylococcus aureus, ATCC29213, 3 h, read-out: Viability, Staphylococcus aureus): 89.8%; viability at 0.5 µg/mL ([9]; Pseudomonas aeruginosa, ATCC27853, 3 h, read-out: Viability, Pseudomonas aeruginosa): 19.3%; viability at 0.5 µg/mL ([10]; Escherichia coli, ATCC25922, 3 h, read-out: Viability, Escherichia coli): 12.4%; viability at 0.5 µg/mL ([11]; Klebsiella pneumoniae, JCM1662, 3 h, read-out: Viability, Klebsiella pneumoniae): 9.2%; viability at 0.5 µg/mL ([12]; Enterobacter cloacae, JCM1232, 3 h, read-out: Viability, Enterobacteria (1)): 3.8%
NC[C@H]1O[C@H](O[C@H]2[C@H](O)[C@@H](O[C@H]3O[C@H](CO)[C@@H](O)[C@H](N)[C@H]3O)[C@H](N)C[C@@H]2N)[C@H](N)C[C@@H]1O [TOB, tobramycin] | < 4 µg/mL | < 4 µg/mL | < 4 µg/mL | < 4 µg/mL | > 16 µg/mL | < 4 µg/mL | > 16 µg/mL | 0.12 to 1 µg/mL (≈ 0.257 to 2.14 µM) | – | – | Viability, Enterobacteria (2) [1, 14]: 0.7; MIC (MRSA (clinical strain 2); Staphylococcus aureus, MRSA): > 16 µg/mL; MIC (MSSA (clinical strain 2); Staphylococcus aureus, MSSA): < 4 µg/mL; Viability (%) Staphylococcus aureus [8, 15]: 3.5%; Viability, Staphylococcus aureus ([8]; Table 7, mean values, peptides 10 μg/mL, TOB 1.0, OX 0.125, MEPM 0.5 μg/mL, 37° C. 3 hours, relative to negative control): 3.4; Viability (%) Pseudomonas aeruginosa [9, 15]: 1.8%; Viability, Pseudomonas aeruginosa [9, 16]: 1.5; Viability, Escherichia coli [10, 16]: 4.1; Viability, Klebsiella pneumoniae [11, 14]: 4.6; Viability, Enterobacteria (1) [12, 14]: 2.9
ARLDVASEFRKKWNKWALSR-amide (ARLDVASEFRKKWNKWALSR-NH2; listed as Homo sapiens) [PAMP] | – | – | – | – | – | – | – | – | 124.6% | – | –
ELRFLHRLKRRLRKRLKRKLR-NH2 [SR-2] | – | – | – | – | – | – | – | – | – | 124.6% | –
MLKLIFLHRLKRMRKRLKRK [SR-1] | – | – | – | – | – | – | – | – | – | 124.3% | –
MLKLIFLHRLKRMRKRLKRKLRFWHRKRYK [AG30-5C] | – | – | – | – | – | – | – | – | 165.7% | 119.1% | –
